According to patent publication US20180312473A1, “PHENAZINE DERIVATIVES AS ANTIMICROBIAL AGENTS” (priority 2015, published 2018):
pIC50: −log10 of the molar value. Converted amounts (≈) assume the structure as drawn. Marks after values point to notes of the source that are not given here.

System: MRSA-2 (methicillin-resistant Staphylococcus aureus clinical isolate)
Experiment: MIC assay (broth microdilution, CLSI)
Format: cell-based
Details: Staphylococcus aureus, MRSA, Table 2A; read-out: MIC, MRSA-2

Compound | MIC [µM]
Oc1c(Cl)cc(Br)c2nc3cc(Br)c(Br)cc3nc12 [Compound 15, 4,7,8-Tribromo-2-chloro-1-hydroxyphenazine] | 12.5 (≈ 5.84 µg/mL)

Same assay, conditions: Staphylococcus aureus, MRSA, Table 7; a midpoint of 2-fold range; b lowest concentration tested; read-out: MIC, MRSA-2

Compound | MIC [µM]
Oc1c(Cl)cc(Br)c2nc3cc(Br)c(Br)cc3nc12 [Compound 15, 4,7,8-Tribromo-2-chloro-1-hydroxyphenazine] | 12.5 (≈ 5.84 µg/mL)

System: MRSA-1 (methicillin-resistant Staphylococcus aureus clinical isolate)
Experiment: MIC assay (broth microdilution, CLSI)
Format: cell-based
Details: Staphylococcus aureus, MRSA, Table 2A; read-out: MIC, MRSA-1

Compound | MIC [µM]
Oc1c(Cl)cc(Br)c2nc3cc(Br)c(Br)cc3nc12 [Compound 15, 4,7,8-Tribromo-2-chloro-1-hydroxyphenazine] | 6.25 (≈ 2.92 µg/mL)

System: Staphylococcus epidermidis (ATCC 12228)
Experiment: MIC assay (broth microdilution, CLSI)
Format: cell-based
Details: Staphylococcus epidermidis, ATCC12228; Table 2A; read-out: MIC, Staphylococcus epidermidis (ATCC 12228)

Compound | MIC [µM]
Oc1c(Cl)cc(Br)c2nc3cc(Br)c(Br)cc3nc12 [Compound 15, 4,7,8-Tribromo-2-chloro-1-hydroxyphenazine] | 0.05 to 0.1 (≈ 0.0234 to 0.0467 µg/mL)

Same assay, conditions: Staphylococcus epidermidis, ATCC12228; Table 7; b lowest concentration tested; read-out: MIC, S. epidermidis 12228

Compound | MIC [µM]
Oc1c(Cl)cc(Br)c2nc3cc(Br)c(Br)cc3nc12 [Compound 15, 4,7,8-Tribromo-2-chloro-1-hydroxyphenazine] | 0.08 (≈ 0.0374 µg/mL)

System: Staphylococcus epidermidis (ATCC 35984), MRSE
Experiment: MIC assay (broth microdilution, CLSI)
Format: cell-based
Details: Staphylococcus epidermidis, Table 2A; read-out: MIC, Staphylococcus epidermidis (ATCC 35984)

Compound | MIC [µM]
Oc1c(Cl)cc(Br)c2nc3cc(Br)c(Br)cc3nc12 [Compound 15, 4,7,8-Tribromo-2-chloro-1-hydroxyphenazine] | 0.2 to 0.39 (≈ 0.0935 to 0.182 µg/mL)

Same assay, conditions: Staphylococcus epidermidis, Table 7; read-out: MIC, MRSE 35984

Compound | MIC [µM]
Oc1c(Cl)cc(Br)c2nc3cc(Br)c(Br)cc3nc12 [Compound 15, 4,7,8-Tribromo-2-chloro-1-hydroxyphenazine] | 0.3 to 0.59 (≈ 0.14 to 0.276 µg/mL)

Same assay, conditions: Table 7

Compound | MIC, MRSE 35984
Oc1c(Cl)cc(Br)c2nc3cc(Br)c(Br)cc3nc12 [Compound 15, 4,7,8-Tribromo-2-chloro-1-hydroxyphenazine] | 0.30^a μM

System: Enterococcus faecium (ATCC 700221), VRE
Experiment: MIC assay (broth microdilution, CLSI)
Format: cell-based
Details: Enterococcus faecium, Table 2A; read-out: MIC, Enterococcus faecium (ATCC 700221)

Compound | MIC [µM]
Oc1c(Cl)cc(Br)c2nc3cc(Br)c(Br)cc3nc12 [Compound 15, 4,7,8-Tribromo-2-chloro-1-hydroxyphenazine] | 0.39 (≈ 0.182 µg/mL)

Same assay, conditions: Table 7; b lowest concentration tested; read-out: MIC, VRE 700221

Compound | MIC [µM]
Oc1c(Cl)cc(Br)c2nc3cc(Br)c(Br)cc3nc12 [Compound 15, 4,7,8-Tribromo-2-chloro-1-hydroxyphenazine] | 0.39 (≈ 0.182 µg/mL)

System: not listed separately
Experiment: in vitro
Format: cell-based
Details: human
Protocol: (§1) The cytotoxicities of select compounds of the invention against HeLa cells were determined. HeLa cytotoxicity was assessed using the LDH release assay described by CYTOTOX96 (Promega G1780). HeLa cells were grown in Dulbecco's Modified Eagle Medium (DMEM; Gibco) supplemented with 10% Fetal Bovine Serum (FBS) at 37° C. with 5% CO2. […] Triton X-100 (at 2% v/v) was used as the positive control for maximum lactate dehydrogenate (LDH) activity in this assay (e.g., complete cell death), while “medium only” lanes served as negative control lanes (e.g., no cell death). DMSO was used as the vehicle control. […] Finally, Stop Solution (50 μL) was added to the incubating plates, and the absorbance was measured at 490 nm.
(§2) HeLa cytotoxicity was assessed using the LDH release assay described by CYTOTOX96 (Promega G1780). HeLa cells were grown in Dulbecco's Modified Eagle Medium (DMEM; Gibco) supplemented with 10% Fetal Bovine Serum (FBS) at 37° C. with 5% CO2. […] Triton X-100 (at 2% v/v) was used as the positive control for maximum lactate dehydrogenate (LDH) activity in this assay (e.g., complete cell death), while “medium only” lanes served as negative control lanes (e.g., no cell death). DMSO was used as our vehicle control. […] Finally, Stop Solution (50 μL) was added to the incubating plates and the absorbance was measured at 490 nm. Results are from three independent experiments (FIG. 19)

Compound | IC50 at 24 h [µM]
Oc1c(Cl)cc(Br)c2nc3cc(Br)c(Br)cc3nc12 [Compound 15, 4,7,8-Tribromo-2-chloro-1-hydroxyphenazine] | > 100

System: HeLa cells
Experiment: in vitro
Format: cell-based
Details: human, 24 h
Protocol: as §1, §2

Compound | pIC50
Oc1c(Cl)cc(Br)c2nc3cc(Br)c(Br)cc3nc12 [Compound 15, 4,7,8-Tribromo-2-chloro-1-hydroxyphenazine] | < 4.00

System: human red blood cells
Experiment: Hemolysis assay with red blood cells
Details: human, 1 h, 200 μM, pH 7.2
Protocol: The hemolysis activities of select compounds of the invention were determined. […] The washing was repeated three times with the buffer. In 96-well plate, test compounds were added to the buffer from DMSO stocks. […] The plate was then incubated for 1 hour at 37° C. After incubation, the plate was centrifuged for 5 minutes at 3,500 rpm. Then 80 μL of the supernatant was transferred to another 96-well plate, and the optical density (OD) was read at 405 nm. DMSO served as the negative control (0% hemolysis), while Triton X served as the positive control (100% hemolysis). The percent of hemolysis was calculated as (OD405 of the compound−OD405 of DMSO)/(OD405 of Triton X−OD405 of the buffer).
The washing was repeated three times with the buffer. In 96-well plate, test compounds were added to the buffer from DMSO stocks. […] The plate was then incubated for 1 hour at 37° C. After incubation, the plate was centrifuged for 5 minutes at 3,500 rpm. Then 80 μL of the supernatant was transferred to another 96-well plate and the optical density (OD) was read at 405 nm. DMSO served as our negative control (0% hemolysis) while Triton X served as our positive control (100% hemolysis). The percent of hemolysis was calculated as (OD405 of the test compound−OD405 DMSO)/(OD405 Triton X−OD405 buffer) from three independent experiments.

Compound | % Hemolysis (200 μM) [%] | % Hemolysis at 200 μM [%]
Oc1c(Cl)cc(Br)c2nc3cc(Br)c(Br)cc3nc12 [Compound 15, 4,7,8-Tribromo-2-chloro-1-hydroxyphenazine] | 2.1 | 2.1

System: MRSA-2 planktonic cells and biofilms
Experiment: Calgary Biofilm Device (CBD) assay, MBC/MBEC
Format: cell-based, Staphylococcus aureus
Details: Staphylococcus aureus, MRSA, Table 4; read-out: MBC, MRSA-2

Compound | MBC [µM]
Oc1c(Cl)cc(Br)c2nc3cc(Br)c(Br)cc3nc12 [Compound 15, 4,7,8-Tribromo-2-chloro-1-hydroxyphenazine] | 25 (≈ 11.7 µg/mL)

Same assay, conditions: Staphylococcus aureus, MRSA, Table 8; a/b 2-/4-fold range in independent experiments; read-out: MRSA-2 MBC

Compound | MBC [µM]
Oc1c(Cl)cc(Br)c2nc3cc(Br)c(Br)cc3nc12 [Compound 15, 4,7,8-Tribromo-2-chloro-1-hydroxyphenazine] | 25 (≈ 11.7 µg/mL)

System: MRSE (S. epidermidis ATCC 35984) planktonic cells and biofilms
Experiment: Calgary Biofilm Device (CBD) assay, MBC/MBEC
Format: cell-based, Staphylococcus epidermidis
Details: Staphylococcus epidermidis; Table 4; read-out: MBC, Staphylococcus epidermidis (ATCC 35984)

Compound | MBC [µM]
Oc1c(Cl)cc(Br)c2nc3cc(Br)c(Br)cc3nc12 [Compound 15, 4,7,8-Tribromo-2-chloro-1-hydroxyphenazine] | 1.56 (≈ 0.729 µg/mL)

Same assay, conditions: Staphylococcus epidermidis; Table 8; read-out: MRSE 35984 MBC

Compound | MBC [µM]
Oc1c(Cl)cc(Br)c2nc3cc(Br)c(Br)cc3nc12 [Compound 15, 4,7,8-Tribromo-2-chloro-1-hydroxyphenazine] | 1.56 (≈ 0.729 µg/mL)

Same assay, conditions: Table 4

Compound | MBEC, Staphylococcus epidermidis (ATCC 35984) [µM]
Oc1c(Cl)cc(Br)c2nc3cc(Br)c(Br)cc3nc12 [Compound 15, 4,7,8-Tribromo-2-chloro-1-hydroxyphenazine] | 3.13

System: MRSA-2
Experiment: MIC assay with Tiron or metal(II) cation co-treatment
Format: cell-based, Staphylococcus aureus
Details: Staphylococcus aureus; MRSA-2, 200 μM copper(II); read-out: MIC with Cu^2+

Compound | MIC [µM]
Oc1c(Cl)cc(Br)c2nc3cc(Br)c(Br)cc3nc12 [Compound 15, 4,7,8-Tribromo-2-chloro-1-hydroxyphenazine] | > 100

Same assay, conditions: Staphylococcus aureus; MRSA-2, 1 mM Tiron; read-out: MIC with Tiron

Compound | MIC [µM]
Oc1c(Cl)cc(Br)c2nc3cc(Br)c(Br)cc3nc12 [Compound 15, 4,7,8-Tribromo-2-chloro-1-hydroxyphenazine] | 0.2

Same assay, conditions: Staphylococcus aureus; MRSA-2, no additive (Table 9); read-out: MIC

Compound | MIC [µM]
Oc1c(Cl)cc(Br)c2nc3cc(Br)c(Br)cc3nc12 [Compound 15, 4,7,8-Tribromo-2-chloro-1-hydroxyphenazine] | 3.13

System: S. epidermidis 12228
Experiment: as above
Format: cell-based, Staphylococcus epidermidis
Details: Staphylococcus epidermidis; S. epidermidis 12228, 200 μM CuSO4; read-out: MIC with Cu^2+

Compound | MIC [µM]
Oc1c(Cl)cc(Br)c2nc3cc(Br)c(Br)cc3nc12 [Compound 15, 4,7,8-Tribromo-2-chloro-1-hydroxyphenazine] | 50

Same assay, conditions: Staphylococcus epidermidis; S. epidermidis 12228, 1 mM Tiron; read-out: MIC with Tiron

Compound | MIC [µM]
Oc1c(Cl)cc(Br)c2nc3cc(Br)c(Br)cc3nc12 [Compound 15, 4,7,8-Tribromo-2-chloro-1-hydroxyphenazine] | 0.1

Same assay, conditions: Staphylococcus epidermidis; S. epidermidis 12228, no additive; read-out: MIC

Compound | MIC [µM]
Oc1c(Cl)cc(Br)c2nc3cc(Br)c(Br)cc3nc12 [Compound 15, 4,7,8-Tribromo-2-chloro-1-hydroxyphenazine] | 0.1

System: E. faecium 700221 (VRE)
Experiment: as above
Format: cell-based, Enterococcus faecium
Details: Enterococcus faecium, VRE; E. faecium 700221, 200 μM CuSO4; read-out: MIC with Cu^2+

Compound | MIC [µM]
Oc1c(Cl)cc(Br)c2nc3cc(Br)c(Br)cc3nc12 [Compound 15, 4,7,8-Tribromo-2-chloro-1-hydroxyphenazine] | 12.5

Same assay, conditions: Enterococcus faecium, VRE; E. faecium 700221, 1 mM Tiron; read-out: MIC with Tiron

Compound | MIC [µM]
Oc1c(Cl)cc(Br)c2nc3cc(Br)c(Br)cc3nc12 [Compound 15, 4,7,8-Tribromo-2-chloro-1-hydroxyphenazine] | 0.78

Same assay, conditions: Enterococcus faecium, VRE; E. faecium 700221, no additive; read-out: MIC

Compound | MIC [µM]
Oc1c(Cl)cc(Br)c2nc3cc(Br)c(Br)cc3nc12 [Compound 15, 4,7,8-Tribromo-2-chloro-1-hydroxyphenazine] | 0.78

System: not given
Experiment: not given
Details: not given

Compound | melting point [°C]
Oc1c(Cl)cc(Br)c2nc3cc(Br)c(Br)cc3nc12 [Compound 15, 4,7,8-Tribromo-2-chloro-1-hydroxyphenazine] | 242 to 244

System: MRSA BAA-44
Experiment: MIC assay (broth microdilution, CLSI)
Details: Staphylococcus aureus, read-out: MIC, MRSA BAA-44

Compound | MIC [µM]
Oc1c(Cl)cc(Br)c2nc3cc(Br)c(Br)cc3nc12 [Compound 15, 4,7,8-Tribromo-2-chloro-1-hydroxyphenazine] | 25 (≈ 11.7 µg/mL)
